Experimental data as given in patent US20110313672A1, “CELLULAR ANTIOXIDANT ACTIVITY (CAA) ASSAY” (CORNELL UNIVERSITY, priority 2007, published 2011).
Where “and” joins values, the source holds several entries; their conditions need not be identical. Identical values can stand only once. Like-named read-outs stand apart in the source and are kept apart here.

Tests used:
HepG2 cells = assay: Cellular antioxidant activity (CAA) assay: inhibition of peroxyl radical-induced DCFH oxidation; assay type: cell-based, human; details: for EC50: mean ± SD, n=3; for CAA value: Example 1, pure compounds, EC50 converted to quercetin equivalents
[1] = Oxygen radical absorbance capacity (ORAC) assay; details: Example 3; flavonoids; mean ± SD, n ≧ 3
Protocol: The peroxyl radical scavenging efficacy of selected fruits was measured using the ORAC assay (Prior, R. L., et al (2003) J. Agric. Food Chem. 51:3273-3279). Briefly, 20 μL of blank, Trolox standard, or fruit extracts in 75 mM potassium phosphate buffer, pH 7.4 (working buffer), was added to triplicate wells in a black, clear-bottom, 96-well microplate. The triplicate samples were distributed throughout the microplate and were not placed side-by-side, to avoid any effects on readings due to location. In addition, no outside wells were used, as use of those wells results in greater variation. A volume of 200 μL of 0.96 μM fluorescein in working buffer was added to each well and incubated at 37° C. for 20 min, with intermittent shaking, before the addition of 20 μL of freshly prepared 119 mM ABAP in working buffer using a 12-channel pipetter. The microplate was immediately inserted into a Fluoroskan Ascent FL plate reader (ThermoLabsystems) at 37° C. The decay of fluorescence at 538 nm was measured with excitation at 485 nm every 4.5 min for 2.5 h. The areas under the fluorescence versus time curve for the samples minus the area under the curve for the blank were calculated and compared to a standard curve of the areas under the curve for 6.25, 12.5, 25, and 50 μM Trolox standards minus the area under the curve for blank. ORAC values were expressed as mean micromoles of Trolox equivalents (TE) per 100 g of fruit±SD for triplicate data from one experiment.
ORAC measurements were performed as described herein in Example 2.

EC50 (HepG2 cells; Example 1, Table 1, PBS wash, pure phytochemical compounds, read-out: EC50 for inhibition of peroxyl radical-induced DCFH oxidation): 15.8 ± 0.4 µM | EC50 (HepG2 cells; Example 1, Table 1, no PBS wash, pure phytochemical compounds, read-out: EC50 for inhibition of peroxyl radical-induced DCFH oxidation): 14 ± 1 µM | EC50 (HepG2 cells; Example 3, Table 7, PBS wash, flavonoids, read-out: EC50): 12.8 ± 0.9 µM | EC50 (HepG2 cells; Example 3, Table 7, no PBS wash, flavonoids, read-out: EC50): 12.3 ± 0.7 µM
Substance: (−)-epigallocatechin gallate [EGCG]
CAA value (HepG2 cells; PBS wash): 32.3 ± 0.9 µmol QE/100 µmol | CAA value (HepG2 cells; no PBS wash): 42.2±3.1 μmol QE/100 μmol | CAA (HepG2 cells; Example 3, Table 7, PBS wash): 63.8 ± 4.4 μmol of QE/100 μmol | CAA (HepG2 cells; Example 3, Table 7, no PBS wash): 72.1 ± 3.8 μmol of QE/100 μmol | ORAC [1]: 4.55±0.40 μmol of TE/μmol and 4.55 ± 0.40 fgh μmol of TE/μmol
